Laboratory results reported in a melting point compilation (Tetko et al.).

Structure (SMILES) | melting point [°C]
NNC(=O)Cn1ccc2ccccc21 | 176 to 178
CCN(CC)c1ccc(NC(=O)CCl)cc1 | 141 to 143
O=C(O)COc1ccc(Br)cc1Cl | 146 to 148
CC(C)Sc1ccc([N+](=O)[O-])cc1C(=O)O | 184 to 186
NS(=O)(=O)CC(=O)O | 119 to 121
O=C(O)[C@@H]1CCCN1C(=O)NCc1cccc(Br)c1 | 146 to 148
O=C(O)CCCNc1ccccc1[N+](=O)[O-] | 115 to 119
CSC(=CC(=O)c1cccnc1)SC | 103 to 105
CC(=O)NC(C)(C)C(N)=NO | 163 to 165
COC(=O)Nc1ccc(N)cc1 | 89 to 91
COC(=O)c1cc(C)ccc1N | 58 to 60
COC(=O)c1ccc(-c2nc(CCl)cs2)cc1 | 108 to 110
CS(=O)(=O)c1cccc(Oc2ccc(N)cc2)c1 | 103 to 105
N#CCCn1cc(C(=O)CCl)c2ccccc21 | 138 to 140
NCC(O)c1ccc(OC(F)F)cc1 (stereo not drawn) | 54 to 56
O=C(CCl)Nc1nncs1 | 233 to 235
CCOC(=O)C(C)=NNc1ccc(Br)cc1CC | 68 to 70
Cc1c(CCl)cc(C(=O)O)cc1CCl | 157 to 159
O=C(O)c1cccc(OCC2CCCO2)c1 (stereo not drawn) | 86 to 88
Cc1cc2occ(CC(=O)O)c2cc1C | 133 to 135
Cc1cc(C(=O)CCl)c(C)n1-c1cccc(C(F)(F)F)c1 | 96 to 98
Cc1ccn2c(CN3CCNCC3)c(C)nc2c1 | 97 to 99
COCCNc1ccc(S(C)(=O)=O)cc1N | 144 to 146
O=Cc1cn(-c2ccccc2)nc1-c1cc2ccccc2o1 | 176 to 178

Structure (SMILES) | melting point [°C]
O=C(O)c1cc(-c2ccc(Cl)s2)on1 | 169 to 171
COCCN1C(=O)c2ccc(C(=O)O)cc2S1(=O)=O | 151 to 153
CNC(=O)c1cccc(O)c1 | 108 to 110
NCCCN1C(=O)NC2(CCCCC2)C1=O | 124 to 126
Cc1[nH]n(-c2ccc(C#N)cc2)c(=N)c1C | 180 to 182
O=C(O)CCc1cc(Cl)ccc1Br | 83 to 85
COc1cc(CO)c([N+](=O)[O-])cc1OCC(F)F | 107 to 109
O=[N+]([O-])c1ccc(OCCO)cc1C(F)(F)F | 62 to 64
Cc1ccc(C2OCCCC2C(=O)O)cc1 (stereo not drawn) | 126 to 128
CC1CN(CC(C)C(=O)NN)CC(C)O1 (stereo not drawn) | 70 to 72
COc1ccc(S)c2ccccc12 | 142 to 144
CCc1cc(C#N)c(N)s1 | 61 to 63
Cc1nc(S)c2ccccc2n1 | 211 to 213
CC(NC1=NS(=O)(=O)c2ccccc21)C(=O)O (stereo not drawn) | 220 to 222
CC(C)S(=O)(=O)c1ccc(CC(=O)O)cc1 | 146 to 148
CCOC(=O)c1cc(C)n(CC(=O)O)c1C | 86 to 88
CCOc1ccc(Br)cc1N | 51 to 53
Cc1ccc(-c2nnc(Cl)c3ccccc23)cc1 | 145 to 147
Cn1nc(CC(=O)O)c2ccccc2c1=O | 189 to 191
Cc1noc(C)c1CCC(=O)O | 109 to 111
COc1ccccc1C(=O)Nc1ccc(O)cc1 | 172 to 174
N#Cc1cccc(NC(=O)c2ccccc2F)c1 | 132 to 134
Cc1cc(OCCO)ccc1N | 62 to 64
O=Cc1ccc(OCC(=O)O)c([N+](=O)[O-])c1 | 156 to 158

Structure (SMILES) | melting point [°C]
CCC(=CC(=O)O)c1ccccc1 | 92 to 94
O=c1c(Cl)c(Cl)cnn1-c1ccc(S(=O)(=O)Cl)cc1 | 144 to 146
CCN(CC)S(=O)(=O)c1ccc(O)c([N+](=O)[O-])c1 | 82 to 84
CCOC(=O)c1sc2ncc(C#N)cc2c1C | 181 to 183
CCOC(=O)c1c(C)[nH]c(C(=O)O)c1C | 204 to 206
ClCc1nc(-c2ccccn2)no1 | 102 to 104
Nc1nc(-c2ccc(C3CCCCC3)cc2)cs1 | 227 to 229
Cc1cc(C(=O)c2cccnc2)ccc1F | 86 to 88
Sc1n[nH]c(C2CC2)n1 | 235 to 237
Cc1cc(C)c(CN)c(=O)[nH]1 | 139 to 141
CC(C)N1C(=O)CC(C(=O)O)C1c1ccc(Cl)c(F)c1 (stereo not drawn) | 163 to 165
NC1=NN(c2ccccc2)CC1 | 168 to 170
CNC(=O)CCC(F)(F)F | 111 to 113
CC(C)NC(=O)c1ccc(N)cc1 | 149 to 151
Cc1nc(-c2ccc(I)cc2)n[nH]1 | 197 to 199
CCCc1nc(C(=O)O)nn1-c1ccccc1Cl | 142 to 144
Nc1cnccc1CO | 112 to 114
Clc1ncnc2[nH]ccc12 | 195 to 197
O=C1Nc2cc(Cl)ccc2C1=O | 264 to 266
FC(F)(F)CNC(=S)N1CCOCC1 | 103 to 105
Cc1cc(C)c(C(=O)O)c(=O)[nH]1 | 234 to 236
c1cc(-c2ncc[nH]2)ccn1 | 208 to 210
COC(=O)c1cc(S(=O)(=O)Cl)c(F)cc1F | 104 to 106
Cc1ccc(-c2noc(CCC(=O)O)n2)cc1F | 142 to 144

Structure (SMILES) | melting point [°C]
O=C(O)CCc1nc(Cc2ccccc2)no1 | 66 to 68
O=C(O)c1cnn(-c2ccc(F)cc2)n1 | 214 to 216
Cc1ccc(NS(=O)(=O)c2ccc(Cl)c(C(=O)O)c2)cc1C | 207 to 209
CN1C(=O)c2ccc(C(=O)O)cc2C1=O | 173 to 175
Fc1ccc(-c2csc3ncnc(Cl)c23)cc1 | 139 to 141
O=C(O)c1cc(S(=O)(=O)NC2CC2)ccc1Br | 221 to 223
CC(=O)c1csc(C(=O)O)c1 | 149 to 151
CC(C)(C)OC(=O)NC1CCC(O)CC1 (stereo not drawn) | 169 to 171
CCc1ccc(C(=O)O)cc1S(C)(=O)=O | 174 to 176
COC(=O)c1ccncc1C(=O)OC | 55 to 57
Nc1cc(CO)ccc1Cl | 97 to 99
CC(C)(F)c1nc(N)nc(Cl)n1 | 169 to 171
O=C(CCl)NOCc1ccccc1 | 92 to 94
Nc1cccc(Cl)c1N1CCOCC1 | 154 to 156
O=[N+]([O-])c1cc(NCC2CC2)ccc1S(=O)(=O)NCC1CC1 | 132 to 134
O=C(O)CCSCc1nc2ccccc2c(=O)[nH]1 | 193 to 195
O=C(O)C1(O)CCCC1 | 84 to 86
O=C(O)c1cccc(CSc2cc(Cl)cc(Cl)c2)c1 | 147 to 149
COC(=O)C(=O)CC(=O)c1ccccc1Br | 61 to 63
NC(=O)N1CCc2ccccc21 | 160 to 162
O=C(O)CC1OCCc2ccsc21 (stereo not drawn) | 109 to 111
NCc1cccc(OCC(N)=O)c1 | 89 to 91
Cc1cc(C)c(S(=O)(=O)Cl)c(C)c1NS(C)(=O)=O | 175 to 177
Cc1ccc(-c2nc(C(=O)O)cs2)n1C | 139 to 141

Structure (SMILES) | melting point [°C]
CC(C)c1noc2ncc(C(=O)O)cc12 | 159 to 161
Cc1sc2nc(CN3CCCC3)nc(Cl)c2c1C | 68 to 72
Nc1c(F)cccc1S(N)(=O)=O | 136 to 138
O=C(O)c1ccc(NS(=O)(=O)c2cccc([N+](=O)[O-])c2)cc1 | 267 to 269
Nc1cc(C2CC2)nn1-c1ncccn1 | 144 to 146
O=C(O)c1cc(OCc2ccccc2)ccn1 | 159 to 161
NCc1cccc(NC(=O)N2CCCC2)c1 | 128 to 130
CC(C)Nc1cccc(O)c1 | 95 to 97
COC(=O)C=Cc1ccc(C(F)(F)F)cc1 | 74 to 76
Cc1ccc(C(=O)O)cc1OCc1csc(Br)c1 | 158 to 160
COc1cccc(N2CC(C(=O)O)CC2=O)c1 (stereo not drawn) | 166 to 168
O=C(CC1CCCCC1)Nc1cccc2c1CCCN2 | 192 to 194
O=S(=O)(Cl)C1=Cc2ccc(OC(F)F)cc2CC1 | 72 to 74
O=C(O)C1CCCN(S(=O)(=O)c2ccc(Br)s2)C1 (stereo not drawn) | 157 to 159
COC(=O)c1cc(C)cc([N+](=O)[O-])c1 | 80 to 82
O=C(O)c1c[nH]c2c(Br)ccc(Br)c2c1=O | 271 to 273
O=C(O)CCCOc1ccc(F)cc1F | 74 to 76
CCN(CC)c1ccc(N)cc1S(=O)(=O)Nc1ccc(OC)cc1 | 107 to 109
O=Cc1cccc(OCc2cccc(C(=O)O)c2)c1 | 122 to 124
Nc1nc(C(F)(F)F)c[nH]1 | 121 to 123
Oc1cnnc(S)n1 | 244 to 246
Cc1cc(Sc2nccn2C)ccc1N | 101 to 103
Cc1cc(C)c(OCC(=O)O)c(C)c1 | 150 to 152
O=C(O)CNC(=O)C12CC3CC(CC(C3)C1)C2 | 145 to 147

Structure (SMILES) | melting point [°C]
COc1cc2ncn(CCC(=O)O)c(=O)c2cc1OC | 95 to 97
Cc1ccc(C#N)cc1S(N)(=O)=O | 194 to 196
CCOC(=O)c1c(C(C)(C)C)csc1N | 56 to 58
Cc1c(C(=O)O)cccc1N1CCNC1=O | 221 to 223
O=C(O)c1csc(-c2ccc3c(c2)OCO3)n1 | 222 to 224
COc1ccc(NS(=O)(=O)c2ccc(C=CC(=O)O)cc2)cc1 | 238 to 240
O=C(Nc1nccs1)C1CCCNC1 (stereo not drawn) | 178 to 180
CN1CCN(S(=O)(=O)c2cccnc2NN)CC1 | 109 to 111
CCCSc1ccc([N+](=O)[O-])c(N)c1 | 71 to 74
CC(C)N(C)S(=O)(=O)c1ccc(N)cc1 | 119 to 121
CC(C)N1CCC(C(=O)O)CC1 | 168 to 170
CC(C)(C(N)=O)c1ccc(N)cc1 | 122 to 124
CCCS(=O)(=O)N1CCCCC1C(=O)O (stereo not drawn) | 84 to 86
CCOc1ccc(Cl)nn1 | 60 to 62
COc1cc(Cl)c(C(=O)CBr)cc1OC | 93 to 95
NC(=O)c1nnc(O)nc1O | 294 to 296
CC1(CCc2ccccc2)NC(=O)NC1=O (stereo not drawn) | 179 to 181
CCN1C(=O)NC(C)C1=O (stereo not drawn) | 51 to 53
CCC(C)c1ccc(-n2c(S)nc3cc(Cl)ccc3c2=O)cc1 (stereo not drawn) | 242 to 244
Nc1nncc(-c2ccc(Br)cc2)n1 | 258 to 260
Cc1cc(Br)cc(C)c1C#N | 68 to 70
COc1cc(CCl)ccc1[N+](=O)[O-] | 49 to 51
Nc1nnc(Cl)c2ccccc12 | 159 to 161
